Structures can show the parent of a compound that is named as a salt.
Key:
E. coli S30 extract = test: E. coli S30 extract: inhibition of bacterial protein synthesis (luciferase); type: biochemical; conditions: 37° C. 1 hour
Procedure: E. coli S30 extract: Inhibition of bacterial protein synthesis was determined using the E. coli S30 Extract System for Circular DNA (Promega catalog #L-2010) and Luciferase Assay Reagent (Promega catalog #E1500) with slight modifications to a published protocol. Fyfe, C., Sutcliffe, J. A. and Grossman, T. H. (2012) “Development and characterization of a Pseudomonas aeruginosa in vitro coupled transcription-translation assay system for evaluation of translation inhibitors” J. Microbiol. Methods 90(3), 256-261.
Compounds were serial diluted in 0.5 mL microcentrifuge tubes by mixing and transferring 50 μL from the highest concentration to 50 μL of water, mixing and transferring 50 μL of this 2-fold dilution to 50 μL of water. This mixing and transferring was repeated so that there are a total of 8 tubes with serial dilutions of compound at 10× the desired screening concentration that are ultimately diluted to 1× by the addition of S30 luciferase synthesis mixture. Serial dilutions of compounds were added (2 μL) to wells in a black round bottom 96-well plate. Water (2 μL) was used as a “no inhibitor” control in 4 wells/plate. No DNA control reaction mixture (20 μL; see below) was used as a control in 4 wells/plate for background luminescence. S30 luciferase synthesis mixture (18 μL; see below) was added to wells with compounds or water mixture and incubated at 37° C. for 1 hour. Reactions were stopped by transferring to 4° C. refrigerator for 5 minutes then 25 μL of luciferase activity mix was added. Luminescence was measured using a BioTek Synergy HTX plate reader. % Inhibition was determined relative to no inhibitor controls.
• 445 μL S30 extract, circular • 712 μL S30 Premix without amino acids • 4.45 μL pBESTluc™ DNA (1 μg/μL) • 78 μL complete amino acid mixture • 267 μL water
• 20 μL S30 extract, circular • 32 μL S30 Premix without amino acids • 7 μL complete amino acid mixture • 21 μL water

[1] = biological target: Rabbit Reticulocyte Lysate; test: Rabbit Reticulocyte Lysate: inhibition of eukaryotic protein synthesis (luciferase); type: biochemical; conditions: 30° C. 90 minutes, read-out: Retic. IC50
Procedure: Inhibition of eukaryotic protein synthesis was determined using the Rabbit Reticulocyte Lysate System, Nuclease-Treated from Promega (catalog #L-4960) with slight modifications to the manufacturer's protocol. Compounds were serial diluted in 0.5 mL microcentrifuge tubes by mixing and transferring 50 μL from the highest concentration to 50 μL of water, mixing and transferring 50 μL of this 2-fold dilution to 50 μL of water. This mixing and transferring was repeated so that there are a total of 8 tubes with serial dilutions of compound at 10× the desired screening concentration that are ultimately diluted to 1× by the addition of rabbit reticulocyte luciferase synthesis mixture. Serial dilutions of compounds were added ([…]) to wells in a black round bottom 96-well plate. Water (2.5 μL) was used as a “no inhibitor” control in 4 wells/plate. No RNA control reaction mixture ([…]; see below) was used as a control in 4 wells/plate for background luminescence. Rabbit reticulocyte luciferase synthesis mixture (22.5 μL; see below) was added to wells with compounds or water mixture and incubated at 30° C. for 90 minutes. Luciferase assay reagent (25 μL) was added with luminescence measured using a BioTek Synergy HTX plate reader. % Inhibition was determined relative to no inhibitor controls.
• 1,000 μL rabbit reticulocyte lysate • 5.7 μL Luciferase Control RNA (1 μg/μL) • 26 μL complete amino acid mixture • 395 μL water
• 70 μL rabbit reticulocyte lysate • 2 μL complete amino acid mixture • 28 μL water

A. baumannii (Ab) = test: Broth microdilution MIC, A. baumannii; type: cell-based; conditions: Acinetobacter baumannii, read-out: Ab + bicarb 25 (MIC)
Procedure: (§1) A certified BSL-2 laboratory was used for testing. Compounds were evaluated using the broth microdilution minimum inhibitory concentration (MIC) and minimum bactericidal concentration (MBC) assays defined by Clinical and Laboratory Standards Institute (CLSI) in the M26-A guideline against S. aureus (Sa), E. coli (Ec), K. pneumoniae (Kp), A. baumannii (Ab), E. faecalis (Ef) and P. aeruginosa (Pa).
(§2) MICs were determined using the Clinical Laboratory and Standards Institute (CLSI) Broth Microdilution Method with slight modification. Clinical and Laboratory Standards Institute (2012). “Methods for dilution antimicrobial susceptibility tests for bacteria that grow aerobically; approved standard, 9th ed. M07-A9. Clinical and Laboratory Standards Institute, Wayne, PA.” Serial two-fold dilutions of compounds are prepared in sterile clear round-bottom 96-well plates.
(§3) To prepare microdilution trays, two-fold dilutions of antimicrobial agent are prepared in growth medium: Cation-Adjusted Mueller-Hinton Broth (CAMHB), or CAMHB supplemented with sodium bicarbonate (25 mM final concentration prepared from a 1.0 M stock solution) or CAMHB supplemented with heat inactivated human serum (Fisher Cat. #BP2657100) 0-50% by adding 200 μL of the highest concentration to be tested (64 μg/mL, for example) in row A, mixing and transferring 100 μL from row A to 100 μL growth medium in row B, then repeating the mixing and transferring through row H of the 96-well plate, discarding the excess 100 μL remaining. This slight modification to the CLSI protocol enables evaluation of MICs for 3 compounds per plate in triplicate, albeit with only 8 compound dilutions (CLSI protocol enables 2 compounds in triplicate with 10 dilutions). Bacterial suspensions are added to a final concentration of 5×10^4 CFU/well by adding 5 μL of a 1:10 dilution of a 0.5 McFarland suspension (1×10^8 CFU/mL) for each bacterium evaluated. Bacterial suspensions were prepared using the growth method described by CLSI. Well-isolated colonies (3-5 from an agar plate) were selected using a sterile loop and used to inoculate a tube containing 4 mL of CAMHB. The cultures are incubated at 35±2° C. until it achieves or exceeds the turbidity of the 0.5 McFarland standard, determined by measuring A600nm (usually two to six hours). When growth exceeds a 0.5 McFarland standard, the turbidity is adjusted with broth to be equivalent to a 0.5 McFarland standard.

E. faecalis (Ef) = test: Broth microdilution MIC, E. faecalis; type: cell-based; conditions: Enterococcus faecalis, read-out: Ef + bicarb 25 (MIC)
Procedure: as §1, §2, §3

S. aureus (Sa) = test: Broth microdilution MIC, S. aureus; type: cell-based; conditions: Staphylococcus aureus, read-out: Sa + bicarb 25 (MIC)
Procedure: as §1, §2, §3

P. aeruginosa (Pa) = test: Broth microdilution MIC, P. aeruginosa; type: cell-based; conditions: Pseudomonas aeruginosa, read-out: Pa + bicarb 25 (MIC)
Procedure: as §1, §2, §3

E. coli (Ec) = test: Broth microdilution MIC, E. coli; type: cell-based; conditions: Escherichia coli, read-out: E. coli + bicarb 25 (MIC)
Procedure: as §1, §2, §3

Work on CC(C)(N)C(=O)N1CCN(C(=O)Nc2ccn(C3=CCC(CN4C[C@@H]5[C@@H](N)[C@@H]5C4)CC3)c(=O)n2)CC1 (single isomer, unassigned) [Compound 34, 4-(2-Amino-2-methylpropanoyl)-N-(1-(4-(((exo)-6-amino-3-azabicyclo[3.1.0]hexan-3-yl)methyl)cyclohex-1-en-1-yl)-2-oxo-1,2-dihydropyrimidin-4-yl)piperazine-1-carboxamide hydrochloride salt] yielded an IC50 (E. coli S30 extract) of less than 500 nM and an IC50 [1] of no less than 1000 nM.

With CC1(N)CCN(CC2CC=C(n3ccc(NC(=O)N4CCN(C(=O)C(C)(C)N)CC4)nc3=O)CC2)CC1 (single isomer, unassigned) [Compound 38, 4-(2-Amino-2-methylpropanoyl)-N-(1-(4-((4-amino-4-methylpiperidin-1-yl)methyl)cyclohex-1-en-1-yl)-2-oxo-1,2-dihydropyrimidin-4-yl)piperazine-1-carboxamide hydrochloride salt] the IC50 (E. coli S30 extract) was less than 500 nM and the IC50 [1] was no less than 1000 nM.

Molecule CC(C)(N)C(=O)N1CCN(C(=O)Nc2ccn(C3=CCC(CN[C@H]4CC[C@H](N)CC4)CC3)c(=O)n2)CC1 (single isomer, unassigned) [Compound 40, trans-4-(2-Amino-2-methylpropanoyl)-N-(1-(4-(((4-aminocyclohexyl)amino)methyl)cyclohex-1-en-1-yl)-2-oxo-1,2-dihydropyrimidin-4-yl)piperazine-1-carboxamide hydrochloride salt] has an IC50 (E. coli S30 extract) of less than 500 nM and an IC50 [1] of no less than 1000 nM.

In the case of CC(C)(N)C(=O)N1CCN(C(=O)Nc2ccn(C3=CCC(CN4CCCC(N)CC4)CC3)c(=O)n2)CC1 (single isomer, unassigned) [Compound 42, 4-(2-Amino-2-methylpropanoyl)-N-(1-(4-((4-aminoazepan-1-yl)methyl)cyclohex-1-en-1-yl)-2-oxo-1,2-dihydropyrimidin-4-yl)piperazine-1-carboxamide hydrochloride salt], the IC50 (E. coli S30 extract) is reported as less than 500 nM and the IC50 [1] is reported as no less than 1000 nM.

Work on CC(C)(N)C(=O)N1CCN(C(=O)Nc2ccn(C3CCC(CN4CC(N)C4)CC3)c(=O)n2)CC1 (stereo not shown) [Compound 10, 4-(2-Amino-2-methylpropanoyl)-N-(1-(4-((3-aminoazetidin-1-yl)methyl)cyclohexyl)-2-oxo-1,2-dihydropyrimidin-4-yl)piperazine-1-carboxamide hydrochloride salt] yielded an IC50 (E. coli S30 extract) of no less than 1000 nM and an IC50 [1] of no less than 1000 nM.

Molecule CC1(N)CCN(CC2CCC(n3ccc(NC(=O)N4CCN(C(=O)C(C)(C)N)CC4)nc3=O)CC2)CC1 (stereo not shown) [Compound 15, 4-(2-amino-2-methylpropanoyl)-N-(1-(4-((4-amino-4-methylpiperidin-1-yl)methyl)cyclohexyl)-2-oxo-1,2-dihydropyrimidin-4-yl)piperazine-1-carboxamide hydrochloride salt] has an MIC (A. baumannii (Ab)) greater than 32 µg/mL, an MIC (E. faecalis (Ef)) greater than 32 µg/mL and an IC50 (E. coli S30 extract) of less than 500 nM. It also gave an IC50 [1] of no less than 1000 nM.

With CC(C)(N)C(=O)N1CCN(C(=O)Nc2ccn(C3=CCC(CN4C[C@@H]5[C@H](N)[C@@H]5C4)CC3)c(=O)n2)CC1 (stereo partly drawn) [Compound 22, endo-4-(2-Amino-2-methylpropanoyl)-N-(1-(4-((6-amino-3-azabicyclo[3.1.0]hexan-3-yl)methyl)cyclohex-1-en-1-yl)-2-oxo-1,2-dihydropyrimidin-4-yl)piperazine-1-carboxamide hydrochloride salt] the MIC (S. aureus (Sa)) was less than 8 µg/mL, the MIC (P. aeruginosa (Pa)) was greater than 32 µg/mL and the MIC (A. baumannii (Ab)) was less than 8 µg/mL. For the same molecule, the MIC (E. faecalis (Ef)) was 8 to 32 µg/mL, the IC50 (E. coli S30 extract) was less than 500 nM and the IC50 [1] was no less than 1000 nM.

CC1(N)CCN(CC2CC=C(n3ccc(NC(=O)N4CCN(C(=O)C(C)(C)N)CC4)nc3=O)CC2)CC1 (stereo not shown) [Compound 27, 4-(2-Amino-2-methylpropanoyl)-N-(1-(4-((4-amino-4-methylpiperidin-1-yl)methyl)cyclohex-1-en-1-yl)-2-oxo-1,2-dihydropyrimidin-4-yl)piperazine-1-carboxamide hydrochloride salt] was tested, and the MIC (S. aureus (Sa)) was less than 8 µg/mL, the MIC (P. aeruginosa (Pa)) was greater than 32 µg/mL and the MIC (A. baumannii (Ab)) was 8 to 32 µg/mL. The MIC (E. faecalis (Ef)) was less than 8 µg/mL, the IC50 (E. coli S30 extract) was less than 500 nM and the IC50 [1] was no less than 1000 nM.

With CC(C)(N)C(=O)N1CCN(C(=O)Nc2ccn(C3=CCC(CN4CCC(N)CC4)CC3)c(=O)n2)CC1 (stereo not shown) [Compound 28, 4-(2-Amino-2-methylpropanoyl)-N-(1-(4-((4-aminopiperidin-1-yl)methyl)cyclohex-1-en-1-yl)-2-oxo-1,2-dihydropyrimidin-4-yl)piperazine-1-carboxamide hydrochloride salt] the MIC (A. baumannii (Ab)) was greater than 32 µg/mL, the MIC (E. faecalis (Ef)) was greater than 32 µg/mL and the IC50 (E. coli S30 extract) was 500 to 1000 nM. The IC50 [1] was no less than 1000 nM.

CC(C)(N)C(=O)N1CCN(C(=O)Nc2ccn(C3=CCC(CN4CC5CC5(N)C4)CC3)c(=O)n2)CC1 (stereo not shown) [Compound 29, 4-(2-Amino-2-methylpropanoyl)-N-(1-(4-((1-amino-3-azabicyclo [3.1.0]hexan-3-yl)methyl)cyclohex-1-en-1-yl)-2-oxo-1,2-dihydropyrimidin-4-yl)piperazine-1-carboxamide hydrochloride salt] gave an IC50 (E. coli S30 extract) of 500 to 1000 nM.

In the case of CC(C)(N)C(=O)N1CCN(C(=O)Nc2ccn([C@H]3CC[C@H](CN(CCF)[C@H]4CC[C@H](N)CC4)CC3)c(=O)n2)CC1 [Compound 49, trans-trans-4-(2-amino-2-methylpropanoyl)-N-(1-(4-(((4-aminocyclohexyl)(2-fluoroethyl)amino)methyl)cyclohexyl)-2-oxo-1,2-dihydropyrimidin-4-yl)piperazine-1-carboxamide hydrochloride salt], the MIC (S. aureus (Sa)) is reported as less than 8 µg/mL, the MIC (E. coli (Ec)) is reported as less than 8 µg/mL and the MIC (A. baumannii (Ab)) is reported as greater than 32 µg/mL. The MIC (E. faecalis (Ef)) was 8 to 32 µg/mL, the IC50 (E. coli S30 extract) was less than 500 nM and the IC50 [1] was no less than 1000 nM.

Source: patent US20250084041A1, “ANTIMICROBIAL COMPOUNDS AND METHODS” (Curza Global, LLC, priority 2021, published 2025)
